The term Ki denotes the equilibrium dissociation constant of an inhibitor or competing ligand from its target. The EC50 is the concentration at which the effect is half-maximal.

The target of test [1] is T1, human glucocorticoid receptor (Homo sapiens, UniProt P04150).
T1 construct: purified human recombinant full-length glucocorticoid receptor (2 nM); purchased Invitrogen Part #2893
T1 sequence (P04150 1-777): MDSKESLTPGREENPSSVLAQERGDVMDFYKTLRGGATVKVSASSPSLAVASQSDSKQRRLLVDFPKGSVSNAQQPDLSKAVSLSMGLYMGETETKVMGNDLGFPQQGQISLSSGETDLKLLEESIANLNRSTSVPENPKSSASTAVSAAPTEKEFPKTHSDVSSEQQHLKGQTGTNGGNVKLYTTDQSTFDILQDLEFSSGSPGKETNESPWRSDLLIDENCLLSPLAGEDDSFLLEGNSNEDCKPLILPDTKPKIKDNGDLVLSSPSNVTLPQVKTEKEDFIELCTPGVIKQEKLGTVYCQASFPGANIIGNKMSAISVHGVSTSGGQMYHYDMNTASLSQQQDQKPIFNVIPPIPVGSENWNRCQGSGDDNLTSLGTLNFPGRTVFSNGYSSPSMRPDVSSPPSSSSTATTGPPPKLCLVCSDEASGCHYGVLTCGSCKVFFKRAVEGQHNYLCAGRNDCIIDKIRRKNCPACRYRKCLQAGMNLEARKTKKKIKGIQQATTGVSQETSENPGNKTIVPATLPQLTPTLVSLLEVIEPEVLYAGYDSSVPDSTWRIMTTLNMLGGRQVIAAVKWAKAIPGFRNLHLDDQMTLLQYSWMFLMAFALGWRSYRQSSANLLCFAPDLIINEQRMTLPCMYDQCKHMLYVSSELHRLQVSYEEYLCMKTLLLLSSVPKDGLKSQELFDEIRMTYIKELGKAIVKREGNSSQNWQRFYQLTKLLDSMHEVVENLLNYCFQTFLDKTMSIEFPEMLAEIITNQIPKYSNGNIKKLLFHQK
Kind of test: Glucocorticoid Receptor Binding Assay (I), fluorescence polarization competitor kit. To be noted: purified human recombinant full-length GR, Fluormone GS Red. On the procedure:
Glucocorticoid Receptor Binding Assay (I)^a
In order to assess the affinity of test compounds for the human glucocorticoid receptor, a commercially available kit was used (Glucocorticoid Receptor Competitor Assay Kit, Invitrogen Part #2893). Briefly, purified human recombinant full-length glucocorticoid receptor (2 nM) was mixed with fluorescently labeled glucocorticoid (1 nM Fluormone GS Red) in the presence or absence of test compound. After two hour incubation at room temperature in the dark, the fluorescence polarization (FP) of the samples was measured. The FP of a mixture of receptor, fluorescent probe (i.e. Fluormone GS Red) and 5 μM dexamethasone represented background fluorescence or 100% inhibition, whereas, the FP of the mixture without dexamethasone (but in the presence of vehicle) was taken to be 100% binding. The percentage inhibition of test compounds were then compared to the sample with 5 μM dexamethasone and expressed as % relative binding activity with dexamethasone being 100% and no inhibition is 0%. Test compounds were analyzed in the concentration range from 8.5E-05 μM to 5 μM.

Test [2] has as its system AP-1 induced transcriptional activity. Kind of test: Cellular Transrepressional Assay (AP-1 luciferase reporter in A549 cell, PMA activated). The class given is cell-based. To be noted: Homo sapiens, A549, 7 h, pAP-1-Luc; for Emax: maximum inhibition, PMA, read-out: AP-1 Max % inh (Cellular Transrepression Assay); for EC50: 10 ng/ml PMA, 7 hours, read-out: AP-1 EC50, nM (Cellular Transrepression Assay). The gist of the method: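 A549 cells stably carrying a 7×AP-1-site luciferase reporter were stimulated with 10 ng/ml PMA for 7 h alongside test molecules (0.1 nM to 40 μM). Luminescence read 10 min after luciferase reagent; repression expressed as % decrease of PMA-only signal, EC50 from curve fitting at 50% reduction of AP-1 activity.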

Each structure is given as a SMILES string.

For the molecule `CC(C(=O)Nc1nncs1)C(c1cccc(F)c1)c1ccc(Br)s1` (mixture of isomers) [Example 93, 3-(5-bromo-2-thienyl)-3-(3-fluorophenyl)-2-methyl-N-1,3,4-thiadiazol-2-ylpropanamide], the Ki in test [1] was 2.79 nM. Regarding `CC(C(=O)Nc1nncs1)C(c1ccccc1)c1ccc(Br)s1` (mixture of isomers) [Example 132, 3-(5-bromo-2-thienyl)-2-methyl-3-phenyl-N-1,3,4-thiadiazol-2-ylpropanamide], the inhibition constant (Ki) in test [1] turned out to be 3.2 nM.

For the molecule `CC(C)(C(=O)Nc1nncs1)C(c1ccccc1)c1ccc(Br)s1` (single isomer, unassigned) [Example 84, 3-(5-bromo-2-thienyl)-2,2-dimethyl-3-phenyl-N-1,3,4-thiadiazol-2-ylpropanamide], the Ki in test [1] is 5.06 nM. Same read-out and setting: the figure for `CC(C)(C(=O)Nc1nncs1)C(c1ccccc1)c1ccc(Br)s1` (single isomer, unassigned) [Example 85, 3-(5-bromo-2-thienyl)-2,2-dimethyl-3-phenyl-N-1,3,4-thiadiazol-2-ylpropanamide] is 2.74 nM. Same read-out and setting: the value for `CC(C(=O)Nc1nncs1)C(c1ccccc1)c1ccc(Br)s1` (single isomer, unassigned) [Example 134, 3-(5-bromo-2-thienyl)-2-methyl-3-phenyl-N-1,3,4-thiadiazol-2-ylpropanamide] was 1.06 nM.

On to `C[C@@H](C(=O)Nc1nncs1)[C@H](c1cccc(F)c1)c1ccc(-c2ccc(C(=O)N3CCOCC3)cc2)s1` [Example 109, (2R,3R)-3-(3-fluorophenyl)-2-methyl-3-(5-(4-(4-morpholinylcarbonyl)phenyl)-2-thienyl)-N-1,3,4-thiadiazol-2-ylpropanamide], for which, in test [2], the Emax was 57.5% and the half-maximal effective concentration (EC50) was 8.39 nM.

For `C[C@@H](C(=O)Nc1nncs1)[C@H](c1cccc(F)c1)c1ccc(-c2ccc(C(=O)N(C)C)c(Cl)c2)s1` [Example 110, 2-Chloro-4-(5-((1R,2R)-1-(3-fluorophenyl)-2-methyl-3-oxo-3-(1,3,4-thiadiazol-2-ylamino)propyl)-2-thienyl)-N,N-dimethylbenzamide], in test [2], the Emax was 47% and the concentration for a half-maximal effect (EC50) was found to be 24.6 nM. Taken in the same sequence, the figures for `C[C@@H](C(=O)Nc1nncs1)[C@H](c1cccc(F)c1)c1ccc(-c2ccc(C(=O)N3CCOCC3)c(Cl)c2)s1` [Example 111, (2R,3R)-3-(5-(3-chloro-4-(4-morpholinylcarbonyl)phenyl)-2-thienyl)-3-(3-fluorophenyl)-2-methyl-N-1,3,4-thiadiazol-2-ylpropanamide] were 53.3% and 21.2 nM.

As for `C[C@@H](C(=O)Nc1nncs1)[C@H](c1cccc(F)c1)c1ccc(-c2ccc(C(=O)N(C)C)c(F)c2)s1` [Example 112, 2-fluoro-4-(5-((1R,2R)-1-(3-fluorophenyl)-2-methyl-3-oxo-3-(1,3,4-thiadiazol-2-ylamino)propyl)-2-thienyl)-N,N-dimethylbenzamide], in test [2], the Emax was 54% and the EC50 stood at 18.5 nM.

Take `CC(C)Oc1ccc(-c2ccc([C@@H](c3cccc(F)c3)[C@@H](C)C(=O)Nc3nncs3)s2)cc1` [Example 113, (2R,3R)-3-(3-fluorophenyl)-3-(5-(4-isopropoxyphenyl)-2-thienyl)-2-methyl-N-1,3,4-thiadiazol-2-ylpropanamide]: in test [2], the Emax was found to be 37.8% and the EC50 came to 17.9 nM.

For the molecule `CC(C)Cc1ccc(-c2ccc([C@@H](c3cccc(F)c3)[C@@H](C)C(=O)Nc3nncs3)s2)cc1` [Example 114, (2R,3R)-3-(3-fluorophenyl)-3-(5-(4-isobutylphenyl)-2-thienyl)-2-methyl-N-1,3,4-thiadiazol-2-ylpropanamide], in test [2], the Emax came out at 36.6% and the EC50 stood at 45.5 nM. Turning to `C[C@@H](C(=O)Nc1nncs1)[C@H](c1cccc(F)c1)c1ccc(-c2ccc(C(=O)N3CCCC3)c(Cl)c2)s1` [Example 115, (2R,3R)-3-(5-(3-chloro-4-(1-pyrrolidinylcarbonyl)phenyl)-2-thienyl)-3-(3-fluorophenyl)-2-methyl-N-1,3,4-thiadiazol-2-ylpropanamide], in test [2], the Emax was found to be 39.1% and the EC50 came to 31 nM. Taken in the same sequence, the figures for `C[C@@H](C(=O)Nc1nncs1)[C@H](c1cccc(F)c1)c1ccc(-c2ccc(C(=O)N3CCCC3)c(F)c2)s1` [Example 116, (2R,3R)-3-(3-fluorophenyl)-3-(5-(3-fluoro-4-(1-pyrrolidinylcarbonyl)phenyl)-2-thienyl)-2-methyl-N-1,3,4-thiadiazol-2-ylpropanamide] were 40.8% and 67.7 nM. Regarding `C[C@@H](C(=O)Nc1nncs1)[C@H](c1cccc(F)c1)c1ccc(-c2ccc(C(=O)N(C)C)cc2)s1` [Example 117, 4-(5-((1R,2R)-1-(3-fluorophenyl)-2-methyl-3-oxo-3-(1,3,4-thiadiazol-2-ylamino)propyl)-2-thienyl)-N,N-dimethylbenzamide], in test [2], the Emax turned out to be 56.5% and the concentration for a half-maximal effect (EC50) is 14.4 nM. As for `C[C@@H](C(=O)Nc1nncs1)[C@H](c1cccc(F)c1)c1ccc(-c2ccc(C(=O)N3CCCC3)cc2)s1` [Example 118, (2R,3R)-3-(3-fluorophenyl)-2-methyl-3-(5-(4-(1-pyrrolidinylcarbonyl)phenyl)-2-thienyl)-N-1,3,4-thiadiazol-2-ylpropanamide], in test [2], the Emax was found to be 55.3% and the EC50 was 61.6 nM.

Regarding `CCN(C)C(=O)c1ccc(-c2ccc([C@@H](c3cccc(F)c3)[C@@H](C)C(=O)Nc3nncs3)s2)cc1Cl` [Example 119, 2-chloro-N-ethyl-4-(5-((1R,2R)-1-(3-fluorophenyl)-2-methyl-3-oxo-3-(1,3,4-thiadiazol-2-ylamino)propyl)-2-thienyl)-N-methylbenzamide], in test [2], the Emax was found to be 47.6% and the EC50 was 22.7 nM. Turning to `CCN(C)C(=O)c1ccc(-c2ccc([C@@H](c3cccc(F)c3)[C@@H](C)C(=O)Nc3nncs3)s2)cc1F` [Example 120, N-ethyl-2-fluoro-4-(5-((1R,2R)-1-(3-fluorophenyl)-2-methyl-3-oxo-3-(1,3,4-thiadiazol-2-ylamino)propyl)-2-thienyl)-N-methylbenzamide], in test [2], the Emax amounted to 42.9% and the concentration giving a half-maximal response (EC50) came to 22.9 nM. `C[C@@H](C(=O)Nc1nncs1)[C@H](c1cccc(F)c1)c1ccc(-c2ccc(C(=O)N3CCC(F)(F)C3)cc2)s1` [Example 121, (2R,3R)-3-(5-(4-((3,3-difluoro-1-pyrrolidinyl)carbonyl)phenyl)-2-thienyl)-3-(3-fluorophenyl)-2-methyl-N-1,3,4-thiadiazol-2-ylpropanamide]: in test [2], the Emax came to 28.7% and the concentration giving a half-maximal response (EC50) came to 66.8 nM. On the same counts, the results for `C[C@@H](C(=O)Nc1nncs1)[C@H](c1ccccc1)c1ccc(-c2ccc(C(=O)N(C)C)cc2)s1` [Example 140, N,N-dimethyl-4-(5-((1R,2R)-2-methyl-3-oxo-1-phenyl-3-(1,3,4-thiadiazol-2-ylamino)propyl)-2-thienyl)benzamide] are 54.1% and 15.2 nM. On the same counts, the results for `CCN(C)C(=O)c1ccc(-c2ccc([C@@H](c3cccc(F)c3)[C@@H](C)C(=O)Nc3nnc(C)s3)s2)cc1` [Example 141, N-Ethyl-4-(5-((1R,2R)-1-(3-fluorophenyl)-2-methyl-3-((5-methyl-1,3,4-thiadiazol-2-yl)amino)-3-oxopropyl)-2-thienyl)-N-methylbenzamide] are 46% and 62.2 nM.

Turning to `CCN(C)C(=O)c1ccc(-c2ccc([C@@H](c3cccc(F)c3)[C@@H](C)C(=O)Nc3nccs3)s2)cc1` [Example 143, N-ethyl-4-(5-((1R,2R)-1-(3-fluorophenyl)-2-methyl-3-oxo-3-(1,3-thiazol-2-ylamino)propyl)-2-thienyl)-N-methylbenzamide], in test [2], the Emax was 63.6% and the concentration for a half-maximal effect (EC50) amounted to 16.9 nM.

The record behind these values is patent US8222247B2, “Modulators of glucocorticoid receptor, AP-1, and/or NF-kappabeta activity and use thereof” (Bristol-Myers Squibb Company, priority 2006, dated 2012).
